Among the data in ChEMBL document CHEMBL1777767, “Efficient radiosynthesis of 2-[(18)f]fluoroadenosine: a new route to 2-[(18)f]fluoropurine nucleosides” (ACS Med Chem Lett, 2010) are Drug uptake values, retold here.

Each structure is given as a SMILES string.

Common to all, as to format: ADME, organism-based
What all share (settings): in vivo, 1 h

A short description of data set [1]: Biodistribution in Sprague-Dawley rat urine at 10.36 to 13.69 MBq, iv after 60 mins by gamma counting.
In data set [2] the test system is Heart. The data set can be described thus: Biodistribution in Sprague-Dawley rat heart at 10.36 to 13.69 MBq, iv after 60 mins by gamma counting.
Data set [3] concerns Liver. The data set can be described thus: Biodistribution in Sprague-Dawley rat liver at 10.36 to 13.69 MBq, iv after 60 mins by gamma counting.
Data set [4] deals with Kidney. The data set can be described thus: Biodistribution in Sprague-Dawley rat kidney at 10.36 to 13.69 MBq, iv after 60 mins by gamma counting.
Data set [5] concerns Spleen. The data set can be described thus: Biodistribution in Sprague-Dawley rat spleen at 10.36 to 13.69 MBq, iv after 60 mins by gamma counting.
In data set [6] the test system is Intestine. The data set can be described thus: Biodistribution in Sprague-Dawley rat intestine at 10.36 to 13.69 MBq, iv after 60 mins by gamma counting.
The test system of data set [7] is Lung. The data set can be described thus: Biodistribution in Sprague-Dawley rat lung at 10.36 to 13.69 MBq, iv after 60 mins by gamma counting.
Data set [8] relates to Blood. The data set can be described thus: Biodistribution in Sprague-Dawley rat blood at 10.36 to 13.69 MBq, iv after 60 mins by gamma counting.
Data set [9] deals with Brain. The data set can be described thus: Biodistribution in Sprague-Dawley rat brain at 10.36 to 13.69 MBq, iv after 60 mins by gamma counting.
In data set [10] the test system is Thymus. The data set can be described thus: Biodistribution in Sprague-Dawley rat thymus at 10.36 to 13.69 MBq, iv after 60 mins by gamma counting.

As to `Nc1nc([18F])nc2c1ncn2[C@@H]1O[C@H](CO)[C@@H](O)[C@H]1O`, the Drug uptake in data set [1] came out at 6.7 % ID/g; in data set [2] it was 3.22 % ID/g; in data set [3], 0.72 % ID/g; in [4], 3.75 % ID/g; in data set [5], 2.85 % ID/g; in data set [6] it was 1.45 % ID/g. For the same compound, the Drug uptake in data set [7] is 9.15 % ID/g; in [8], 0.47 % ID/g; in data set [9], 0.06 % ID/g; in data set [10] it was 0.65 % ID/g.
